{"source": "patent US20140099354A1", "about": "“BIOPASSIVATING MEMBRANE STABILIZATION BY MEANS OF NITROCARBOXYLIC ACID-CONTAINING PHOSPHOLIPIDS IN PREPARATIONS AND COATINGS” (priority 2011, published 2014)"}
{"test_system": "sciatic nerve", "assay": "Viability of cryopreserved nerve grafts (Annexin-V staining, FACS)", "type": "cell-based, rats", "conditions": "100 mmolar solution 1 hour; −30° C. 72 hours", "units": {"proportion of living cells relative to non-frozen control": "%"}, "method": "The sciatic nerve was prepared and sectured in anesthetized rats. The nerve pieces were freed from connective tissue and divided into 3 parts. Specimens were placed in culture DMEM medium containing low a concentration of glucose (1 g/L) with L-glutamine (PAA, Pasching Austria) for 24 hours. […] Nerve specimens from the same animals that received no pretreatment served as controls. After incubation, the specimens were cultured for 24 hours. In a further control group, specimens were cryopreserved without any pretreatment. The specimens were covered with a sterile gauze pad moistened with culture medium. Thereafter the temperature was gradually cooled to −30° C. After 72 hours, the nerve pieces were gradually rewarmed to 37° C. After this, renewed culturing was done for 48 hours. The nerve pieces were dissected enzymatically then (collagenase A and D, Roche, Mannheim, Germany) followed by a mechanical separation through multiple uptake and release in a glass pipette. The isolated cells were washed and marked with a living/death staining (Annexin-V-Fluos staining Kit, Roche Diagnostics, Mannheim, Germany) and quantified using FACS analysis. The number of living cells identified was set in relation to the total cells count."}
{"compound": "CCCCCC/C(=C\\CCCCCCCC(=O)OC[C@H](COP(=O)([O-])OCC[N+](C)(C)C)OC(=O)CCCCCCC/C=C(\\CCCCCC)[N+](=O)[O-])[N+](=O)[O-]", "note": "[Example N19, 1,2-di-(E-10-nitropalmitoleoyl)-sn-3-glycerophosphocholine]", "proportion of living cells relative to non-frozen control": 84}
{"compound": "CCCCCCCC/C=C\\CCCCCCCC(=O)O[C@H](COC(=O)CCCCCCCCCCCCCCC)COP(=O)(O)OC1[C@H](O)[C@H](O)C(O)[C@H](O)[C@H]1O", "note": "(some centres unmarked) [POPI, 1-Palmitoyl-2-oleoyl-sn-3-glycero-phosphatidylinositol, reference compound]", "proportion of living cells relative to non-frozen control": 20}
{"compound": "1,2-di-(dinitro-α-linolenoyl)-sn-glycero-3-phosphatidylcholines [Example N14]", "proportion of living cells relative to non-frozen control": 81}
{"test_system": "ovarian tissue strips", "assay": "Cryopreservation of ovarian tissue strips: intact follicles", "conditions": "liquid nitrogen 14 days, cultured 14 days", "units": {"rate of intact follicles relative to the control group": "%"}}
{"compound": "1,2-di-(9-nitro-α-linolenoyl)-sn-3-glycerophosphocholine, 1,2-di-(10-nitro-α-linolenoyl)-sn-3-glycerophosphocholine, 1-(9-nitro-α-linolenoyl)-2-(10-nitro-α-linolenoyl)-sn-3-glycerophosphocholine and 1-(10-nitro-α-linolenoyl)-2-(9-nitro-α-linolenoyl)-sn-3-glycerophosphocholine [Example N11]", "rate of intact follicles relative to the control group": 95}
{"compound": "1,2-di-(nitro-γ-linolenoyl)-sn-glycero-3-phosphatidylcholines [Example N5]", "rate of intact follicles relative to the control group": 89}
{"compound": "CCCCCCCCCCCCCCCC(=O)OC[C@H](COP(=O)([O-])OCC[N+](C)(C)C)OC(=O)CCCCCCCC(C(O)CCCCCCCC)[N+](=O)[O-]", "note": "(some centres unmarked) [Example O2, 1-palmitoyl-2-(9-nitro-10-hydroxy-stearoyl)-sn-3-glycerophosphocholine]", "rate of intact follicles relative to the control group": 87}
{"compound": "CCCCCCCC/C(=C\\CCCCCCCC(=O)O[C@H](COC(=O)CCCCC1CCSS1)COP(=O)([O-])OCC[N+](C)(C)C)[N+](=O)[O-]", "note": "(some centres unmarked) [Example P9, 1-liponoyl-2-(E-10-nitrooleoyl)-sn-3-glycerophosphocholine]", "rate of intact follicles relative to the control group": 90}
{"compound": "1,2-di-(dinitroeicosapentaenoyl)-sn-glycero-3-phosphatidylcholines [Example N13]", "rate of intact follicles relative to the control group": 91}
{"compound": "CC/C=C\\C/C=C\\C/C=C\\C/C=C\\C/C=C\\C/C=C\\CCC(=O)OC[C@H](COP(=O)([O-])OCC[N+](C)(C)C)OC(=O)CCCCCCC/C=C(\\CCCCCC)[N+](=O)[O-]", "note": "[Example P11, 1-DHA-2-(E-10-nitropalmitoleoyl)-sn-3-glycerophosphocholine]", "rate of intact follicles relative to the control group": 97}
{"compound": "1,2-di-(dinitrolinoleoyl)-sn-glycero-3-phosphatidylcholines [Example N12]", "rate of intact follicles relative to the control group": 88}
{"compound": "1-Palmitoyl-2-(9-hydroxy-10-nitrostearoyl)-sn-3-glycerophosphocholine and 1-palmitoyl-2-(10-hydroxy-9-nitrostearoyl)-sn-3-glycerophosphocholine [Example O4]", "rate of intact follicles relative to the control group": 93}
{"compound": "1,2-di-(nitroarachidonoyl)-sn-glycero-3-phosphatidylcholines [Example N4]", "rate of intact follicles relative to the control group": 92}
{"compound": "1,2-Di-(9-hydroxy-10-nitrostearoyl)-sn-3-glycerophosphocholine, 1-(9-hydroxy-10-nitrostearoyl)-2-(10-hydroxy-9-nitrostearoyl)-sn-3-glycerophosphocholine, 1-(10-hydroxy-9-nitrostearoyl)-2-(9-hydroxy-10-nitrostearoyl)-sn-3-glycerophosphocholine and 1,2-di-(10-hydroxy-9-nitrostearoyl)-sn-3-glycerophosphocholine [Example O3]", "rate of intact follicles relative to the control group": 91}
{"compound": "1,2-di-(nitroarachidonoyl)-sn-glycero-3-phosphatidylcholines [Example N3]", "rate of intact follicles relative to the control group": 94}
